Data on 27 molecules can be found in patent publication US20250188032A1, “NITROGEN-CONTAINING HETEROCYCLIC COMPOUNDS AND USES THEREOF” (BNH RESEARCH CO., LTD., priority 2022, published 2025).

In this data set the test system is 293T cells. In words: Cytotoxicity test (CCK-8 cell viability) in 293T cells. The note with it: 24 hours co-incubation, 293T cell line, % of control. The format is cell-based, human. The method, then:
Human undifferentiated neuroblastoma cell line SH-SY5Y and human embryonic kidney cell line (HEK)-293T were purchased from Korean Cell Line Bank (Korea) and Takara (Japan), respectively. Cells were grown in HyClone Minimal Essential Medium (MEM) and Dulbecco's Modified Eagle Medium (DMEM), respectively, supplemented with 10% (v/v) fetal bovine serum (FBS), penicillin (100 U/mL), and streptomycin ([…]). Cells were maintained in a humidified atmosphere of 95% air and 5% CO2 at 37° C. Cells were passaged 10 times at maximum. Cells were dissociated using 0.05% trypsin-EDTA solution and the cells were seeded in new culture dishes for maintenance.
To examine the cytotoxicity of compounds described herein in human cell lines, SH-SY5Y and 293T cells were used. Approximately 8,000 cells (for 293T) and 15,000 cells (for SH-SY5Y) were plated per well of a 96-well plate (SPL Life Sciences Co., Ltd., Pocheon, Korea). After incubating at 37° C. for 24 hours in a humidified atmosphere containing 5% CO2, the culture medium was replaced by a series of concentrations of test compounds diluted in the corresponding culture medium. The time of co-incubation was 24 hours and six replicates were made for each measurement. Finally, 10 μL of CCK-8 reagent (Dojindo Laboratories, Rockville, MD) was added to each well, and after incubation at 37° C. for 3 minutes, the OD at 450 nm was measured using a multifunction microplate reader (Tecan Infinite M200 Pro). These measurements were compared to that of a control and expressed as a percentage of the control to calculate cell viability. The IC50 value was calculated using SPSS software. To do this, the absorbance of the blank wells with only growth medium is subtracted from the values or the wells with cells. The readout value of background (vehicle) was set as a 100% viability, and then the percent viability for each test solution was calculated.
Cell viability (%)=[(As-Ab)/(Ac-Ab)]×100
The data was presented as the mean value and standard error of the mean (S.E.M.). Statistical analysis was performed with the one-way ANOVA with Tukey's post hoc test (GraphPad Prism 5 software package, version 5.02, GraphPad Software Inc. USA). Significance was accepted at p<0.05.

Take `O=C(O)[C@@H]1CCCN(C(=O)Cc2ccc(F)cc2Cl)C1` [BnH12004, (R)-1-(2-(2-chloro-4-fluorophenyl)acetyl)piperidine-3-carboxylic acid]: the “Cell viability test results (CCK) 10 uM” value was 95%< and the “Cell viability test results (CCK) 100 uM” value is given as 85%<.

As to `CCC(=O)N1C[C@H](C(=O)O)CC[C@@H]1C` [BnH12008, (3R,6S)-6-methyl-1-propionylpiperidine-3-carboxylic acid], the “Cell viability test results (CCK) 10 uM” value is 95%< and the “Cell viability test results (CCK) 100 uM” value is 90%<.

Consider `C[C@H]1CC[C@@H](C(=O)O)CN1C(=O)c1ccc(F)cc1Cl` [BnH12011, (3R,6S)-1-(2-chloro-4-fluorobenzoyl)-6-methylpiperidine-3-carboxylic acid], for which the “Cell viability test results (CCK) 10 uM” value is on record as 95%< and the “Cell viability test results (CCK) 100 uM” value is given as 95%<.

Turning to `O=C(O)[C@H]1CCCN1C(=O)Cc1ccc(F)cc1Cl` [BnH12012, (2-(2-chloro-4-fluorophenyl)acetyl)-D-proline], the “Cell viability test results (CCK) 10 uM” value worked out at 95%< and the “Cell viability test results (CCK) 100 uM” value came to 90%<.

In the case of `O=C(O)[C@@H]1CCCN1C(=O)Cc1ccc(F)cc1Cl` [BnH12013, (2-(2-chloro-4-fluorophenyl)acetyl)-L-proline], the “Cell viability test results (CCK) 10 uM” value was determined as 99%< and the “Cell viability test results (CCK) 100 uM” value was determined as 99%<.

On to `O=C(NO)[C@H]1CCCN1C(=O)Cc1ccc(F)cc1Cl` [BnH12014, (R)-1-(2-(2-chloro-4-fluorophenyl)acetyl)-N-hydroxypyrrolidine-2-carboxamide], for which the “Cell viability test results (CCK) 10 uM” value is given as 99%< and the “Cell viability test results (CCK) 100 uM” value came to 90%<.

On to `O=C(NO)[C@@H]1CCCN1C(=O)c1ccccc1` [BnH12019, (S)-1-Benzoyl-N-hydroxypyrrolidine-2-carboxamide], for which the “Cell viability test results (CCK) 10 uM” value was found to be 99%< and the “Cell viability test results (CCK) 100 uM” value amounted to 90%<.

On to `COC(=O)[C@@H]1CC[C@H](C)N(C(=O)Cc2ccc(F)cc2Cl)C1` [BnH12020, Methyl (3R,6S)-1-(2-(2-chloro-4-fluorophenyl)acetyl)-6-methylpiperidine-3-carboxylate], for which the “Cell viability test results (CCK) 10 uM” value is 95%< and the “Cell viability test results (CCK) 100 uM” value is recorded as 95%<.

As to `CCOC(=O)[C@@H]1CC[C@H](C)N(C(=O)Cc2ccc(F)cc2Cl)C1` [BnH12021, Ethyl (3R,6S)-1-(2-(2-chloro-4-fluorophenyl)acetyl)-6-methylpiperidine-3-carboxylate], the “Cell viability test results (CCK) 10 uM” value came out at 90%< and the “Cell viability test results (CCK) 100 uM” value was found to be 80%<.

Consider `C[C@H]1CC[C@@H](C(N)=O)CN1C(=O)Cc1ccc(F)cc1Cl` [BnH12022, (3R,6S)-1-(2-(2-chloro-4-fluorophenyl)acetyl)-6-methylpiperidine-3-carboxamide], for which the “Cell viability test results (CCK) 10 uM” value was 99%< and the “Cell viability test results (CCK) 100 uM” value worked out at 99%<.

For `C[C@H]1CC[C@@H](C(=O)O)CN1C(=O)Cc1ccc(Cl)cc1` [BnH12023, (3R,6S)-1-(2-(4-chlorophenyl)acetyl)-6-methylpiperidine-3-carboxylic acid], the “Cell viability test results (CCK) 10 uM” value is on record as 95%< and the “Cell viability test results (CCK) 100 uM” value came to 80%<.

On to `Cc1ccc(CC(=O)N2C[C@H](C(=O)O)CC[C@@H]2C)cc1` [BnH12024, (3R,6S)-6-methyl-1-(2-(p-tolyl)acetyl)piperidine-3-carboxylic acid], for which the “Cell viability test results (CCK) 10 uM” value was 99%< and the “Cell viability test results (CCK) 100 uM” value amounted to 99%<.

`C[C@H]1CC[C@@H](C(=O)O)CN1C(=O)Cc1cccc(Cl)c1` [BnH12026, (3R,6S)-1-(2-(3-chlorophenyl)acetyl)-6-methylpiperidine-3-carboxylic acid]: the “Cell viability test results (CCK) 10 uM” value came to 99%< and the “Cell viability test results (CCK) 100 uM” value stood at 99%<.

For the molecule `C[C@H]1CC[C@@H](C(=O)O)CN1C(=O)Cc1ccc(Cl)c(Cl)c1` [BnH12028, (3R,6S)-1-(2-(3,4-dichlorophenyl)acetyl)-6-methylpiperidine-3-carboxylic acid], the “Cell viability test results (CCK) 10 uM” value is recorded as 90%< and the “Cell viability test results (CCK) 100 uM” value was determined as 80%<.

As to `C[C@H]1CC[C@@H](C(=O)O)CN1C(=O)Cc1ccc(C(C)(C)C)cc1` [BnH12029, (3R,6S)-1-(2-(4-(tert-butyl)phenyl)acetyl)-6-methylpiperidine-3-carboxylic acid], the “Cell viability test results (CCK) 10 uM” value worked out at 99%< and the “Cell viability test results (CCK) 100 uM” value was 80%<.

Consider `Cc1cccc(CC(=O)N2C[C@H](C(=O)O)CC[C@@H]2C)c1` [BnH12030, (3R,6S)-6-methyl-1-(2-(m-tolyl)acetyl)piperidine-3-carboxylic acid], for which the “Cell viability test results (CCK) 10 uM” value is 95%< and the “Cell viability test results (CCK) 100 uM” value turned out to be 85%<.

As to `C[C@H]1CC[C@@H](C(=O)O)CN1C(=O)Cc1ccc(F)cc1` [BnH12031, (3R,6S)-1-(2-(4-fluorophenyl)acetyl)-6-methylpiperidine-3-carboxylic acid], the “Cell viability test results (CCK) 10 uM” value is 90%< and the “Cell viability test results (CCK) 100 uM” value was determined as 75%<.

Turning to `C[C@H]1CC[C@@H](C(=O)O)CN1C(=O)Cc1ccc(Br)cc1` [BnH12032, (3R,6S)-1-(2-(4-bromophenyl)acetyl)-6-methylpiperidine-3-carboxylic acid], the “Cell viability test results (CCK) 10 uM” value was 99%< and the “Cell viability test results (CCK) 100 uM” value worked out at 95%<.

For `C[C@H]1CC[C@@H](C(=O)[O-])CN1C(=O)Cc1ccncc1.[Na+]` [BnH12033, Sodium (3R,6S)-6-methyl-1-(2-(pyridin-4-yl)acetyl)piperidine-3-carboxylate], the “Cell viability test results (CCK) 10 uM” value is on record as 90%< and the “Cell viability test results (CCK) 100 uM” value worked out at 65%<.

For the molecule `C[C@H]1CC[C@@H](C(=O)O)CN1C(=O)Cc1cccs1` [BnH12034, (3R,6S)-6-methyl-1-(2-(thiophen-2-yl)acetyl)piperidine-3-carboxylic acid], the “Cell viability test results (CCK) 10 uM” value turned out to be 90%< and the “Cell viability test results (CCK) 100 uM” value turned out to be 85%<.

As for `C[C@H]1CC[C@@H](C(=O)O)CN1C(=O)Cc1ccco1` [BnH12035, (3R,6S)-1-(2-(furan-2-yl)acetyl)-6-methylpiperidine-3-carboxylic acid], the “Cell viability test results (CCK) 10 uM” value was 90%< and the “Cell viability test results (CCK) 100 uM” value stood at 85%<.

In the case of `C[C@H]1CC[C@@H](C(=O)O)CN1C(=O)Cc1cncnc1` [BnH12040, (3R,6S)-6-methyl-1-(2-(pyrimidin-5-yl)acetyl)piperidine-3-carboxylic acid], the “Cell viability test results (CCK) 10 uM” value is reported as 85%< and the “Cell viability test results (CCK) 100 uM” value is on record as 80%<.

`C[C@H]1CC[C@@H](C(=O)O)CN1C(=O)Cc1ncccn1` [BnH12041, (3R,6S)-6-methyl-1-(2-(pyrimidin-2-yl)acetyl)piperidine-3-carboxylic acid]: the “Cell viability test results (CCK) 10 uM” value came to 90%< and the “Cell viability test results (CCK) 100 uM” value came to 70%<.

Regarding `C[C@@H]1CC[C@H](C(=O)O)CN1C(=O)Cc1ccccc1` [BnH12062, (3S,6R)-6-methyl-1-(2-phenylacetyl)piperidine-3-carboxylic acid], the “Cell viability test results (CCK) 10 uM” value was found to be 85%< and the “Cell viability test results (CCK) 100 uM” value came to 75%<.

For the molecule `COc1ccc(CC(=O)N2C[C@H](C(=O)O)CC[C@@H]2C)cn1` [BnH12075, (3R,6S)-1-(2-(6-methoxypyridin-3-yl)acetyl)-6-methylpiperidine-3-carboxylic acid], the “Cell viability test results (CCK) 10 uM” value is on record as 99%< and the “Cell viability test results (CCK) 100 uM” value came to 99%<.

For `C[C@H]1CC[C@@H](C(=O)O)CN1C(=O)Cc1ccc(N(C)C)cc1` [BnH12076, (3R,6S)-1-(2-(4-(dimethylamino)phenyl)acetyl)-6-methylpiperidine-3-carboxylic acid], the “Cell viability test results (CCK) 10 uM” value is recorded as 95%< and the “Cell viability test results (CCK) 100 uM” value is 95%<.

On to `CCC1CCC(C(=O)O)CN1C(=O)Cc1ccc(F)cc1Cl` (stereo not drawn) [BnH12094, 1-(2-(2-chloro-4-fluorophenyl)acetyl)-6-ethylpiperidine-3-carboxylic acid], for which the “Cell viability test results (CCK) 10 uM” value is 80%< and the “Cell viability test results (CCK) 100 uM” value was found to be 70%<.
